What was measured:
SHV-5 β-lactamase = biological target: T1, SHV-5 β-lactamase (Klebsiella pneumoniae, UniProt P0A3M1); assay: β-lactamase enzyme inhibition, SHV-5; assay type: biochemical
T1 construct: made in house; host or cells: E. coli BL21(DE3)
Method in brief: (§1)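 Enzyme + inhibitor, 15 min, 37° C; substrate added, absorbance read 10 min. OXA-1/p99 AmpC: nitrocefin 100 μM final, A486. KPC-2: imipenem, A300. SHV-5: cefotaxime, A260. IC50 = 50% drop in initial hydrolysis rate vs no-inhibitor control.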

KPC-2 β-lactamase = biological target: T2, KPC-2 β-lactamase (Klebsiella pneumoniae, UniProt Q9F663); assay: β-lactamase enzyme inhibition, KPC-2; assay type: biochemical; settings: imipenem substrate, 300 nm; 15 min at 37° C. preincubation; read-out: IC50 KPC-2 (Class A)
T2 construct: made in house; host or cells: E. coli BL21(DE3)
T2 sequence (Q9F663 25-293, looked up): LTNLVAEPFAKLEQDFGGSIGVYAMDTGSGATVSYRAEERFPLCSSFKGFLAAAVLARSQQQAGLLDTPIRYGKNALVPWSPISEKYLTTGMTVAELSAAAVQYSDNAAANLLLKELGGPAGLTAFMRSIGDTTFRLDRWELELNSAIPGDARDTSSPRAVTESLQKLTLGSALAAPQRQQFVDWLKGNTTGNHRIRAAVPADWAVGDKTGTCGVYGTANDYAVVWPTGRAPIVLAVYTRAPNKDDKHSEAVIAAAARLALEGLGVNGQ
Method in brief: as §1

[1] = biological target: T3, VIM-2 metallo β-lactamase (Pseudomonas aeruginosa, UniProt Q9K2N0); assay: β-lactamase enzyme inhibition, VIM-2; assay type: biochemical; settings: Nitrocefin 100 μM, 486 nm; 15 min at 37° C. preincubation; read-out: IC50 VIM-2 (Class B)
T3 construct: made in house; host or cells: E. coli BL21(DE3)
Method in brief: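 Inhibitor and enzyme sat together 15 min at 37° C before 100 μM nitrocefin (final) was added and 486 nm absorbance read for 10 min. IC50 is the concentration halving initial hydrolysis rate relative to uninhibited wells. Protein came from Q sepharose anion exchange at pH 7.5, repeated to >90% purity.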

p99 AmpC β-lactamase = biological target: T4, p99 AmpC β-lactamase (Enterobacter cloacae, UniProt P05364); assay: β-lactamase enzyme inhibition, p99 AmpC; assay type: biochemical
T4 construct: made in house; host or cells: E. coli BL21(DE3)
T4 sequence (P05364 21-381): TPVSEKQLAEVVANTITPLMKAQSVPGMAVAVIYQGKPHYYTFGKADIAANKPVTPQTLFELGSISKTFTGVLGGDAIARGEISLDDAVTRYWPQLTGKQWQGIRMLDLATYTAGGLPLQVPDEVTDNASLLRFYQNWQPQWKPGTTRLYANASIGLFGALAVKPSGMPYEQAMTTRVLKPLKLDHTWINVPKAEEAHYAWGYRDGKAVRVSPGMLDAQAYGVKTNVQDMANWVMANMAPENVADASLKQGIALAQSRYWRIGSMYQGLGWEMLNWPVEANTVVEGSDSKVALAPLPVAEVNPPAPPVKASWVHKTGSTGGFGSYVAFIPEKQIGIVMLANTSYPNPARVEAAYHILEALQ
Method in brief: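 Inhibitor and enzyme were incubated 15 min at 37°C first. The enzyme was recombinant p99 AmpC, untagged, from E. coli BL21(DE3), purified by ion-exchange and size-exclusion chromatography.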

OXA-1 β-lactamase = biological target: T5, OXA-1 β-lactamase (Escherichia coli, UniProt P13661); assay: β-lactamase enzyme inhibition, OXA-1; assay type: biochemical; settings: Nitrocefin 100 μM, 486 nm; 15 min at 37° C. preincubation; read-out: IC50 OXA-1 (Class D)
T5 construct: made in house; host or cells: E. coli BL21(DE3)
T5 sequence (P13661 26-276): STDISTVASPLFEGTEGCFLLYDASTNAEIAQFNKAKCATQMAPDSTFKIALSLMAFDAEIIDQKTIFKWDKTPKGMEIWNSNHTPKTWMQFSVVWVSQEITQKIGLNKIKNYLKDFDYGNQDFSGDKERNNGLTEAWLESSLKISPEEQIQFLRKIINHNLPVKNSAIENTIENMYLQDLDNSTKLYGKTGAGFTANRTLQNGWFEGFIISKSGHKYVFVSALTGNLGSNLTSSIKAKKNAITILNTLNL
Method in brief: as §1

[2] = test system: E. coli ESBL4 expressing CTX-M-15; assay: broth microdilution MIC, E. coli CTX-M-15; assay type: cell-based; settings: Fixed CAZ (ceftazidime) 4 μg/mL
Method in brief: (§2)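 First, strains were grown 3-5 hours in CAMHB; then compound dilutions (32 to 0.25 μg/mL final) received a beta-lactam overlay at 4 μg/mL final. Finally, plates were inoculated per CLSI and incubated 16-20 hours at 37° C.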

[3] = test system: E. cloacae 144200 expressing Class C P99 AmpC; assay: broth microdilution MIC, E. cloacae P99; assay type: cell-based; settings: Fixed CAZ (ceftazidime) 4 μg/mL
Method in brief: as §2

[4] = test system: K. pneumoniae 156319 expressing KPC-3; assay: broth microdilution MIC, K. pneumoniae KPC-3; assay type: cell-based; settings: Fixed Mero (meropenem) 4 μg/mL
Method in brief: as §2

[5] = test system: P. aeruginosa Ps296 expressing VIM-2; assay: broth microdilution MIC, P. aeruginosa VIM-2; assay type: cell-based; settings: Fixed Mero (meropenem) 4 μg/mL
Method in brief: as §2

[6] = test system: K. pneumoniae A-1797 expressing KPC-2 and VIM-4; assay: broth microdilution MIC, K. pneumoniae KPC-2 and VIM-4; assay type: cell-based; settings: Fixed Mero (meropenem) 4 μg/mL
Method in brief: as §2

[7] = test system: S. aureus MSSA-7 producing penicillinase PC-1; assay: broth microdilution MIC, S. aureus PC-1; assay type: cell-based; settings: Fixed Pip (piperacillin) 4 μg/mL
Method in brief: as §2

T1 sequence (P0A3M1 22-286): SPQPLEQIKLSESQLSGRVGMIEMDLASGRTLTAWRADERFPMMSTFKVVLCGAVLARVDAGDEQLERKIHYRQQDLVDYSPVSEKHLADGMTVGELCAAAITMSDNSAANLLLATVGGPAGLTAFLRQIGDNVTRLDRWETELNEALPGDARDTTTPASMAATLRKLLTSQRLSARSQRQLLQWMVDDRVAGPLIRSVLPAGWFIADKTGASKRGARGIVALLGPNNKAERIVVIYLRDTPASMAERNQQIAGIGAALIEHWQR

Row | Compound | IC50 (SHV-5 β-lactamase) | IC50 (KPC-2 β-lactamase) | IC50 [1] | IC50 (p99 AmpC β-lactamase) | IC50 (OXA-1 β-lactamase) | MIC of exemplary compounds in presence of fixed β-lactams, E. coli ESBL4 CTX-M-15 [2] | MIC of exemplary compounds in presence of fixed β-lactams, E. cl. 144200 p99 AmpC [3] | MIC of exemplary compounds in presence of fixed β-lactams, K.P. 156319 KPC-3 [4] | MIC of exemplary compounds in presence of fixed β-lactams, P. aerug. Ps296 VIM-2 [5] | MIC of exemplary compounds in presence of fixed β-lactams, K.P. A-1797 KPC-2 VIM-4 [6] | MIC of exemplary compounds in presence of fixed β-lactams, S. aureus MSSA-7 PC-1 [7]
1 | CCOCC(=O)N[C@H]1Cc2cccc(C(=O)O)c2OB1O [Example 25, (R)-3-(2-ethoxyacetamido)-2-hydroxy-3,4-dihydro-2H-benzo[e][1,2]oxaborinine-8-carboxylic acid] | < 100 nM | < 100 nM | 1000 to 10000 nM | < 100 nM | < 100 nM | C (C represents the MIC in the presence of ≤4 g/mL of a β-lactamase inhibitor) | C (C represents the MIC in the presence of ≤4 g/mL of a β-lactamase inhibitor) | C (C represents the MIC in the presence of ≤4 g/mL of a β-lactamase inhibitor) | C (C represents the MIC in the presence of ≤4 g/mL of a β-lactamase inhibitor) | B (B represents the MIC in the presence of between 8 and 32 g/mL of a β-lactamase inhibitor) | C (C represents the MIC in the presence of ≤4 g/mL of a β-lactamase inhibitor)
2 | COCCC(=O)N[C@H]1Cc2cccc(C(=O)O)c2OB1O [Example 26, (R)-2-Hydroxy-3-(3-methoxy-propionylamino)-3,4-dihydro-2H-benzo[e][1,2]oxaborinine-8-carboxylic acid] | 100 to 1000 nM | < 100 nM | 1000 to 10000 nM | < 100 nM | < 100 nM | C (C represents the MIC in the presence of ≤4 g/mL of a β-lactamase inhibitor) | C (C represents the MIC in the presence of ≤4 g/mL of a β-lactamase inhibitor) | C (C represents the MIC in the presence of ≤4 g/mL of a β-lactamase inhibitor) | B (B represents the MIC in the presence of between 8 and 32 g/mL of a β-lactamase inhibitor) | B (B represents the MIC in the presence of between 8 and 32 g/mL of a β-lactamase inhibitor) | C (C represents the MIC in the presence of ≤4 g/mL of a β-lactamase inhibitor)
3 | COCCOCC(=O)N[C@H]1Cc2cccc(C(=O)O)c2OB1O [Example 27, (R)-2-Hydroxy-3-[2-(2-methoxy-ethoxy)-acetylamino]-3,4-dihydro-2H-benzo[e][1,2]oxaborinine-8-carboxylic acid] | < 100 nM | < 100 nM | 100 to 1000 nM | < 100 nM | < 100 nM | C (C represents the MIC in the presence of ≤4 g/mL of a β-lactamase inhibitor) | C (C represents the MIC in the presence of ≤4 g/mL of a β-lactamase inhibitor) | C (C represents the MIC in the presence of ≤4 g/mL of a β-lactamase inhibitor) | A (A represents an MIC of the fixed β-lactam antibiotic in the presence of >32 g/mL of a β-lactamase inhibitor) | B (B represents the MIC in the presence of between 8 and 32 g/mL of a β-lactamase inhibitor) | C (C represents the MIC in the presence of ≤4 g/mL of a β-lactamase inhibitor)
4 | O=C(CCn1cccn1)N[C@H]1Cc2cccc(C(=O)O)c2OB1O [Example 28, (R)-2-Hydroxy-3-(3-pyrazol-1-yl-propionylamino)-3,4-dihydro-2H-benzo[e][1,2]oxaborinine-8-carboxylicacid] | < 100 nM | < 100 nM | 1000 to 10000 nM | < 100 nM | < 100 nM | C (C represents the MIC in the presence of ≤4 g/mL of a β-lactamase inhibitor) | C (C represents the MIC in the presence of ≤4 g/mL of a β-lactamase inhibitor) | C (C represents the MIC in the presence of ≤4 g/mL of a β-lactamase inhibitor) | B (B represents the MIC in the presence of between 8 and 32 g/mL of a β-lactamase inhibitor) | B (B represents the MIC in the presence of between 8 and 32 g/mL of a β-lactamase inhibitor) | C (C represents the MIC in the presence of ≤4 g/mL of a β-lactamase inhibitor)
5 | O=C(CCn1ccnc1)N[C@H]1Cc2cccc(C(=O)O)c2OB1O [Example 29, (R)-2-Hydroxy-3-(3-imidazol-1-yl-propionylamino)-3,4-dihydro-2H-benzo[e][1,2]oxaborinine-8-carboxylic acid] | < 100 nM | < 100 nM | 1000 to 10000 nM | < 100 nM | < 100 nM | C (C represents the MIC in the presence of ≤4 g/mL of a β-lactamase inhibitor) | C (C represents the MIC in the presence of ≤4 g/mL of a β-lactamase inhibitor) | C (C represents the MIC in the presence of ≤4 g/mL of a β-lactamase inhibitor) | C (C represents the MIC in the presence of ≤4 g/mL of a β-lactamase inhibitor) | A (A represents an MIC of the fixed β-lactam antibiotic in the presence of >32 g/mL of a β-lactamase inhibitor) | C (C represents the MIC in the presence of ≤4 g/mL of a β-lactamase inhibitor)
6 | O=C(CN1CCOC1=O)N[C@H]1Cc2cccc(C(=O)O)c2OB1O [Example 30, (R)-2-Hydroxy-3-[2-(2-oxo-oxazolidin-3-yl)-acetylamino]-3,4-dihydro-2H-benzo[e][1,2]oxaborinine-8-carboxylicacid] | < 100 nM | < 100 nM | 100 to 1000 nM | < 100 nM | < 100 nM | C (C represents the MIC in the presence of ≤4 g/mL of a β-lactamase inhibitor) | C (C represents the MIC in the presence of ≤4 g/mL of a β-lactamase inhibitor) | C (C represents the MIC in the presence of ≤4 g/mL of a β-lactamase inhibitor) | C (C represents the MIC in the presence of ≤4 g/mL of a β-lactamase inhibitor) | C (C represents the MIC in the presence of ≤4 g/mL of a β-lactamase inhibitor) | C (C represents the MIC in the presence of ≤4 g/mL of a β-lactamase inhibitor)
7 | O=C(CCc1nccs1)N[C@H]1Cc2cccc(C(=O)O)c2OB1O [Example 31, (R)-2-hydroxy-3-(3-(thiazol-2-yl)propanamido)-3,4-dihydro-2H-benzo[e][1,2]oxaborinine-8-carboxylic acid] | < 100 nM | < 100 nM | 1000 to 10000 nM | < 100 nM | < 100 nM | C (C represents the MIC in the presence of ≤4 g/mL of a β-lactamase inhibitor) | C (C represents the MIC in the presence of ≤4 g/mL of a β-lactamase inhibitor) | C (C represents the MIC in the presence of ≤4 g/mL of a β-lactamase inhibitor) | C (C represents the MIC in the presence of ≤4 g/mL of a β-lactamase inhibitor) | B (B represents the MIC in the presence of between 8 and 32 g/mL of a β-lactamase inhibitor) | C (C represents the MIC in the presence of ≤4 g/mL of a β-lactamase inhibitor)
